Experimental data from US20250346599A1, “TRICYCLIC PHTHALAZINONE PARP INHIBITORS AND METHODS OF USE” (Valo Health, Inc., priority 2022, published 2025).

Assays:
[1] = literature statement; cited from earlier work
[2] = molecular target: human MDR1 (P-glycoprotein; P-gp) (Homo sapiens (Human), UniProt P08183); assay: bi-directional MDCK-MDR1 permeability assay; type: in vitro ADME; settings: for MDCK-MDR1 Papp A→B (10^−6 cm/s) / Papp A→B: apical to basolateral direction; for MDCK-MDR1 ER / efflux ratio: efflux ratio B→A/A→B; for Papp A→B: dog; for Papp A→B / efflux ratio: MDCK-MDR1; for efflux ratio: human, read-out: MDCK-MDR1 ER
human MDR1 (P-glycoprotein; P-gp), sequence (P08183 whole entry): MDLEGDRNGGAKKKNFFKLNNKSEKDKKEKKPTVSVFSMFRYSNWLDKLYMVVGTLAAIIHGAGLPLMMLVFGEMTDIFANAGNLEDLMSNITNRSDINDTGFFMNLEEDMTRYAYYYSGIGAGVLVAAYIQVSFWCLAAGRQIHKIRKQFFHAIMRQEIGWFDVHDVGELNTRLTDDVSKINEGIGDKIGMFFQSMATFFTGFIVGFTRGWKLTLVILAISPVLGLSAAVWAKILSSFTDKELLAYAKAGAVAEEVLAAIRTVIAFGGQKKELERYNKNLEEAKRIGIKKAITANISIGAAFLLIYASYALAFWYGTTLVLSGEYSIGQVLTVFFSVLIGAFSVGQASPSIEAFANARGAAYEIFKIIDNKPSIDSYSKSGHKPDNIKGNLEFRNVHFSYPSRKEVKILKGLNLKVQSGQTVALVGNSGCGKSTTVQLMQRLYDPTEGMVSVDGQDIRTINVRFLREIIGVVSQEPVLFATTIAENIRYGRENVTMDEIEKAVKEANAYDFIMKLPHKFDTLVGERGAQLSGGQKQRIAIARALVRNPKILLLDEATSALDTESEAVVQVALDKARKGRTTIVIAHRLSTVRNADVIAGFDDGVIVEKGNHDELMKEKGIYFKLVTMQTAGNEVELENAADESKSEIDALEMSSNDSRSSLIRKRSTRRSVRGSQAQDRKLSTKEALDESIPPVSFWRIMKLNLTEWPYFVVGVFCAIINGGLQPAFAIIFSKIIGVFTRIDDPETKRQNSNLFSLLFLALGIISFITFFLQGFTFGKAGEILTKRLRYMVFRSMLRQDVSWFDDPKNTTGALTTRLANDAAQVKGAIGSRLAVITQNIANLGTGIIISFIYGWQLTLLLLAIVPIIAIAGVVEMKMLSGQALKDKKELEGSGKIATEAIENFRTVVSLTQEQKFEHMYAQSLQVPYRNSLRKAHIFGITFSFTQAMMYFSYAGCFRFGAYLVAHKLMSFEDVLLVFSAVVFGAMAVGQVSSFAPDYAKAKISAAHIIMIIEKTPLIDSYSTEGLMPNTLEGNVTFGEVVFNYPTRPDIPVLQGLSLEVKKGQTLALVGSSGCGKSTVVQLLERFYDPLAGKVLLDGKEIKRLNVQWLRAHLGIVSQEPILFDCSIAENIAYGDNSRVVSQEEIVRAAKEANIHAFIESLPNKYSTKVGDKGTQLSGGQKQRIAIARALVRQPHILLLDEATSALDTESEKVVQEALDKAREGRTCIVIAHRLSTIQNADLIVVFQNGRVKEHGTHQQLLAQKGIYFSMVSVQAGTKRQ
Text: The bi-directional assay containing a Mandin Darby canine kidney (MDCK) cell line transfected with human MDR1 gene (P-glycoprotein; P-gp) designed to overexpress the MDR1 efflux transporter, a major efflux transporter at the blood brain barrier (BBB), uses an established method that measures the rate of flux of a compound across polarized cell monolayers. As well appreciated in the art, the data generated from the MDCK-MDR1 permeability assay may be used to predict in vivo absorption of drugs. The bi-directional MDCK-MDR1 permeability assay can identify and quantify levels of active efflux. Screening compounds in both the apical to basolateral direction (A→B) and basolateral to apical direction (B→A) across the cell monolayer provides a ratio of B→A/A→B (efflux ratio; “ER”). Unlike the Caco-2 assay, the MDCK-MDR1 assay is not subject to potential efflux interference by breast cancer resistance protein (BCRP). […] The data may further be used to predict blood brain barrier (BBB) permeability via calculation from the data of log(permeability-surface area product) (“log PS”), well-understood to be predictive of the in vivo log([brain concentration]/[plasma concentration]).

PARP1 enzyme = PARP1 enzyme (Homo sapiens (Human), UniProt P09874); assay: PARP Mass Spectroscopy Assay (PARP1 enzymatic assay, nicotinamide detection); type: biochemical; settings: 5 nM PARP1, 5 uM β-NAD, 60 min at RT, NAM by mass spectrometry
PARP1 enzyme, sequence (P09874 whole entry): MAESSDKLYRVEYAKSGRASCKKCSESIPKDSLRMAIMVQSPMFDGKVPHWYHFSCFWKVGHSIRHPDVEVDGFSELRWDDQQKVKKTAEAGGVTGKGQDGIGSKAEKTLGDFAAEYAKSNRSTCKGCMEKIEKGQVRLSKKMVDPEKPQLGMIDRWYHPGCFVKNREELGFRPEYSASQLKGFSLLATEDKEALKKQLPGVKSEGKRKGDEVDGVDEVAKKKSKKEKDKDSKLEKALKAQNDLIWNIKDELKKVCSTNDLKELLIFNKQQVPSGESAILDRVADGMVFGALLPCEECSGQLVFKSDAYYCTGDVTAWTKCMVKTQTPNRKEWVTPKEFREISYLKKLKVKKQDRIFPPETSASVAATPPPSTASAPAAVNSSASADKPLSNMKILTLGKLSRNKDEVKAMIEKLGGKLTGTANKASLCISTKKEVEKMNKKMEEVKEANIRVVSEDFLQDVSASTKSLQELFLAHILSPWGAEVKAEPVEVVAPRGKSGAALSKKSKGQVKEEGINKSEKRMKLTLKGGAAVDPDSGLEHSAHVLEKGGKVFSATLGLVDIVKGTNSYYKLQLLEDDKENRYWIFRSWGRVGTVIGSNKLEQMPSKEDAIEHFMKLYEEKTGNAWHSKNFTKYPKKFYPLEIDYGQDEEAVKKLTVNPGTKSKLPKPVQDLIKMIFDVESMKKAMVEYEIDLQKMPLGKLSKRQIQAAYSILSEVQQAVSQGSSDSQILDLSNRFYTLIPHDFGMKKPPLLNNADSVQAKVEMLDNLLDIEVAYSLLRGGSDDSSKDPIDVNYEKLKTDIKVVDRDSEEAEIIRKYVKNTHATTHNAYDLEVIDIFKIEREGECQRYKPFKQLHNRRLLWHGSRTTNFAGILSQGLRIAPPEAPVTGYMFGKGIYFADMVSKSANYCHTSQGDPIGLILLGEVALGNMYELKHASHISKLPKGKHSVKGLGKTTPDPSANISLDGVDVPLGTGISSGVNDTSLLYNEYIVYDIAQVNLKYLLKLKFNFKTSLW
Text: Materials and Reagents: The PARP1 enzyme was purchased from BPS Bioscience (cat #80501). Tris-HCl, pH 8.0 was purchased from Corning (cat #46-031-CM). Magnesium chloride was purchased from Thermo Fisher Scientific (previously Honeywell Fluka, cat #63020-1L). All other assay components, activated DNA (cat #D4522), core histones (cat #SRP6590), β-Nicotinamide adenine dinucleotide (β-NAD—cat #N8285), 3ABA PARP1 small molecule inhibitor (from the PARP1 Enzyme Activity Assay kit, cat #17-10149), Sodium Chloride (NaCl, cat #56546-1L), Triton X-100 (cat #93443), Dithiothreitol (DTT, cat #43816-250 ML) were all purchased from Millipore Sigma.
Assay Buffer: The assay buffer includes the following reagents: 50 mM Tris-HCl pH 8.0, 50 mM NaCl, 10 mM, MgCl2, 0.01% Triton X-100, and 1 mM DTT.
PARP1 enzymatic assays were performed in 384-well plates in a total volume of 20 μL in the assay buffer. For concentration response curves, compounds were serially diluted 3-fold from 2 mM highest concentration […] to generate a 10-point curve, and 125 nL was transferred to the assay plate using the Echo acoustic dispenser for a final concentration range of 26.6 μM to […] in 10 μL reaction. Five microliters of 10 nM PARP1 enzyme and 100 nM core histones (2×) mix were added to the assay plates and pre-incubated for 30 mins at room temperature (RT). The reaction was initiated by the addition of a 5 μL of 10 uM β-NAD plus 0.02 mg/mL activated DNA (2×) mix. The reaction is incubated for 60 min at RT. The final concentration of the PARP1 enzyme and substrate concentrations were 5 nM and 5 uM, respectively. The positive control (high signal) and negative control (low signal) wells had 125 nL of DMSO in place of compounds. After the incubation is complete, the reaction is stopped by the addition of 10 μL of 10 uM of the 3ABA PARP1 inhibitor, incubated for 5 min at RT, and placed in the −80 C freezer for shipment to the Valo Health site in Branford Connecticut where mass spectrometry will be used to directly detect quantities of nicotinamide (NAM).
The percent inhibition of enzyme activity was calculated according to the following equation: […]
The values of Ssample, Shigh, and Slow in the equation refer to the NAM concentration detected in the assay wells, high control wells, and low control wells, respectively. To determine inhibitor IC50 values, % inhibition of the CRCs (concentration response curves) was fitted to the standard single-site four-parameter logistic equation.

[3] = in vivo unbound brain to plasma ratio (Kpuu) at steady state; settings: rat, brain and plasma (unbound), continuous intravenous infusion over 24 hours, Sprague Dawley rats, free drug in brain vs plasma
Description: Compounds of the present technology are predicted to show BBB passage according to internal proprietary predictive models. These predictive models were further verified by in vivo experiments. In particular, in vivo unbound brain to plasma ratio (Kpuu) was measured at steady state by comparison of free drug concentrations (protein binding corrected) in brain and plasma after continuous intravenous infusion in Sprague Dawley rats over 24 hours, where a Kpuu of >0.3 represents good brain exposure of the compound.

MDCK-MDR1 Papp A→B (10^−6 cm/s) [2] | MDCK-MDR1 ER [2] | IC50 (PARP1 enzyme) [nM] | Kp uu at 24 h [3] | Papp A→B [2] [×10⁻⁶ cm/s] | efflux ratio [2] | Structure (SMILES) | central nervous system (CNS) penetration [1]
 |  |  |  |  |  | NC(=O)c1cccc2cn(-c3ccc([C@@H]4CCCNC4)cc3)nc12 [niraparib] | do not have good central nervous system (CNS) penetration
10.6 10^−6 cm/s | 0.59 | 41 |  |  |  | O=c1[nH]nc2c3c(cc(F)cc13)NCC2c1ccc(Cl)cc1F (centres unmarked) [Compound 0189-6] | 
 |  | 8 | 0.591 | 13.8 | 0.654 | C[C@@H]1Nc2cc(F)cc3c(=O)[nH]nc(c23)[C@H]1c1ccc(F)cc1F [Compound 0174B, (8S,9S)-9-(2,4-difluorophenyl)-5-fluoro-8-methyl-2,7,8,9-tetrahydro-3H-pyrido[4,3,2-de]phthalazin-3-one] | 
5.66 10^−6 cm/s | 3.06 | 32 |  |  |  | O=c1[nH]nc2c3c(cc(F)cc13)N[C@H]([C@H]1CCOC1)[C@H]2c1ccccc1Cl [Compound 0121A] | 
4.93 10^−6 cm/s | 3.33 | 130 |  |  |  | O=c1[nH]nc2c3c(cc(F)cc13)N[C@@H](C1CCC(F)(F)CC1)[C@@H]2c1ccccc1Cl [Compound 0213B] | 
 |  | 21 |  | 13.9 | 0.699 | C[C@H]1Nc2cc(F)cc3c(=O)[nH]nc(c23)[C@@H]1c1ccc(Cl)c(F)c1 [Compound 0195A, (8R,9R)-9-(4-chloro-3-fluorophenyl)-5-fluoro-8-methyl-2,7,8,9-tetrahydro-3H-pyrido[4,3,2-de]phthalazin-3-one] | 
8.48 10^−6 cm/s | 1.15 | 19 |  |  |  | CC(C)[C@@H]1Nc2cc(F)cc3c(=O)[nH]nc(c23)[C@H]1c1c(F)cc(F)cc1F [Compound 0221B] | 
 |  |  |  |  |  | Cn1ncnc1[C@H]1c2n[nH]c(=O)c3cc(F)cc(c23)N[C@@H]1c1ccc(F)cc1 [talazoparib] | do not have good central nervous system (CNS) penetration
9.59 10^−6 cm/s | 0.92 | 18 |  |  |  | CC(C)[C@H]1Nc2cc(F)cc3c(=O)[nH]nc(c23)[C@H]1c1ccccc1Cl [Compound 0222B] | 
 |  | 28 |  | 11.7 | 0.541 | O=c1[nH]nc2c3c(cc(F)cc13)NC[C@H]2c1ccc(Cl)c(F)c1 [Compound 0188A, (R)-9-(4-chloro-3-fluorophenyl)-5-fluoro-2,7,8,9-tetrahydro-3H-pyrido[4,3,2-de]phthalazin-3-one] | 
9.65 10^−6 cm/s | 0.741 | 64 |  |  |  | O=c1[nH]nc2c3c(cc(F)cc13)N[C@@H](C1CC1)[C@@H]2c1ccccc1Cl [Compound 0207A, (11S,12S)-12-(2-chlorophenyl)-11-cyclopropyl-7-fluoro-2,3,10-triazatricyclo[7.3.1.0^{5,13}]trideca-1,5(13),6,8-tetraen-4-one] | 
 |  | 32 |  | 16.1 | 0.995 | O=c1[nH]nc2c3c(cc(F)cc13)NCC2c1ccc(F)cc1F (centres unmarked) [Compound 0114-5, 9-(2,4-difluorophenyl)-5-fluoro-2,7,8,9-tetrahydro-3H-pyrido[4,3,2-de]phthalazin-3-one] | 
0.506 10^−6 cm/s | 17.9 | 38 |  |  |  | C[C@@H]1Nc2cc(F)cc3c(=O)[nH]nc(c23)[C@@H]1[C@H]1CCCCN1C [Compound 0199C] | 
13.4 10^−6 cm/s | 0.695 | 9 |  |  |  | CC[C@@H]1Nc2cc(F)cc3c(=O)[nH]nc(c23)[C@H]1c1ccccc1Cl [Compound 0206A, (11S,12S)-12-(2-chlorophenyl)-11-ethyl-7-fluoro-2,3,10-triazatricyclo[7.3.1.0^{5,13}]trideca-1,5(13),6,8-tetraen-4-one] | 
 |  | 45 |  | 0.498 | 30.4 | CN1CCC([C@H]2Nc3cc(F)cc4c(=O)[nH]nc(c34)[C@H]2c2ccc(F)cc2F)CC1 [Compound 0110B, (8R,9S)-9-(2,4-difluorophenyl)-5-fluoro-8-(1-methylpiperidin-4-yl)-2,7,8,9-tetrahydro-3H-pyrido[4,3,2-de]phthalazin-3-one] | 
 |  |  |  |  |  | O=C(c1cc(Cc2n[nH]c(=O)c3ccccc23)ccc1F)N1CCN(C(=O)C2CC2)CC1 [olaparib] | do not have good central nervous system (CNS) penetration
0.685 10^−6 cm/s | 37 | 9 |  |  |  | CC(=O)N1CCC([C@@H]2Nc3cc(F)cc4c(=O)[nH]nc(c34)[C@H]2c2ccccc2Cl)CC1 [Compound 0223B] | 
 |  |  |  |  |  | CNCc1ccc(-c2[nH]c3cc(F)cc4c3c2CCNC4=O)cc1 [rucaparib] | do not have good central nervous system (CNS) penetration
 |  | 42 |  | 11.7 | 0.522 | O=c1[nH]nc2c3c(cc(F)cc13)NCC2c1ccc(Cl)c(F)c1 (centres unmarked) [Compound 0188-5, 9-(4-chloro-3-fluorophenyl)-5-fluoro-2,7,8,9-tetrahydro-3H-pyrido[4,3,2-de]phthalazin-3-one] | 
3.66 10^−6 cm/s | 5.77 | 43 |  |  |  | O=c1[nH]nc2c3c(cc(F)cc13)N[C@@H]([C@@H]1CCOC1)[C@@H]2c1ccccc1Cl [Compound 0121D] | 
13 10^−6 cm/s | 0.537 | 9 |  |  |  | C[C@H]1Nc2cc(F)cc3c(=O)[nH]nc(c23)[C@@H]1c1ccc(Cl)cc1F [Compound 0196A] | 
 |  | 123 |  | 0.471 | 30.8 | CN1CCC([C@@H]2Nc3cc(F)cc4c(=O)[nH]nc(c34)[C@H]2c2ccccc2Cl)CC1 [Compound 0116B, (8S,9S)-9-(2-chlorophenyl)-5-fluoro-8-(1-methylpiperidin-4-yl)-2,7,8,9-tetrahydro-3H-pyrido[4,3,2-de]phthalazin-3-one] | 

Structure (SMILES) | MDCK-MDR1 Papp A→B (10^−6 cm/s) [2] | MDCK-MDR1 ER [2] | IC50 (PARP1 enzyme) [nM] | Kp uu at 24 h [3] | Papp A→B [2] [×10⁻⁶ cm/s] | efflux ratio [2] | central nervous system (CNS) penetration [1]
N#Cc1ccc([C@H]2CNc3cc(F)cc4c(=O)[nH]nc2c34)c(F)c1 [Compound 0187B] | 8.56 10^−6 cm/s | 1.67 | 41 |  |  |  | 
C[C@H]1Nc2cc(F)cc3c(=O)[nH]nc(c23)[C@@H]1c1ccc(C#N)cc1F [Compound 0194A] | 6.96 10^−6 cm/s | 2.22 | 2 |  |  |  | 
O=c1[nH]nc2c3c(cc(F)cc13)NC[C@@H]2c1ccc(Cl)cc1F [Compound 0189B] | 15.6 10^−6 cm/s | 0.538 | 29 |  |  |  | 
O=c1[nH]nc2c3c(cc(F)cc13)N[C@H]([C@@H]1CCOC1)[C@H]2c1ccc(F)cc1F [Compound 0115B] | 9.05 10^−6 cm/s | 2.04 | 190 |  |  |  | 
C[C@H]1Nc2cc(F)cc3c(=O)[nH]nc(c23)[C@@H]1c1ccc(C#N)c(F)c1 [Compound 0193A] | 5.83 10^−6 cm/s | 2.63 | 24 |  |  |  | 
